US8501752B2, “Methods for treating cancer and other pathological proliferating disorders by inhibiting mitosis using pyrrolo[2,3-d]pyrimidines” (Duquesne University of the Holy Ghost, priority 2005, dated 2013)
Like-named read-outs stand apart in the source and are kept apart here.

Key:
MCF-7 cells = experiment: Cytotoxicity, drug-sensitive MCF-7 cells
Excerpt: (§1) These cell lines are resistant to anticancer drugs due to overexpression of the transport proteins P-glycoprotein or MRP1.

MCF-7/VP cells = experiment: Cytotoxicity, MCF-7/VP cells that overexpress MRP1; conditions: for Resistance (MCF-7/VP relative to MCF-7): MRP1
Excerpt: as §1

NCI/ADR cells = experiment: Cytotoxicity, NCI/ADR cells that overexpress P-glycoprotein; conditions: for Resistance (NCI/ADR relative to MCF-7): P-glycoprotein
Excerpt: as §1

[1] = test system: T24, MCF-7, NCI/ADR, MCF-7/VP; experiment: Cytotoxicity, panel of human tumor cell lines of Table 3 (text summaries)
Excerpt: as §1

[2] = test system: HL-60 human promyelocytic leukemia cells; experiment: Flow cytometric cell cycle phase distribution; format: cell-based; conditions: 24 hours treatment
Procedure: Flow cytometric analyses were used to assess the effects of Compound 1 and various antimicrotubule drugs on the cell cycle phase distributions of HL-60 human promyelocytic leukemia cells. The percentage of cells in the G2/M phases were increased approximately 2-fold by treatment of the cells for 24 hours with either TAXOL (paclitaxel), vinblastine, colchicine, or Compound 1.

[3] = test system: T24 human bladder carcinoma cells; experiment: Cytotoxicity, T24 cells; format: cell-based
P-glycoprotein = target: T1, P-glycoprotein (Homo sapiens, UniProt P08183); experiment: P-glycoprotein antagonism: sensitivity of NCI/ADR cells to vinblastine; format: cell-based; conditions: absence or presence of 50 nM vinblastine
T1 construct: NCI/ADR cells that overexpress P-glycoprotein; endogenous in cells; host or cells: NCI/ADR cells
Excerpt: To determine if this is due to inhibition of drug transport activity by these proteins, the effects of these compounds on P-glycoprotein were further characterized. The effects of the compounds on the sensitivity of NCI/ADR cells to vinblastine and of MCF-7/VP cells to vincristine were examined to evaluate antagonism of P-glycoprotein and MRP1, respectively. FIGS. 4a-b present graphs of antagonism score versus concentration for P-glycoprotein and MRP1, respectively.
The Pgp antagonism score is calculated as the percentage survival of cells in the absence of vinblastine/percentage survival in the presence of vinblastine. […] The MRP1 antagonism score is calculated as the percentage survival of cells in the absence of vincristine/percentage survival in the presence of vincristine. […] Concentrations of Compounds 1-5 above their IC50 toward MCF-7 cells are not indicated. Data for one of three similar experiments is shown.

T1 sequence (P08183 whole entry): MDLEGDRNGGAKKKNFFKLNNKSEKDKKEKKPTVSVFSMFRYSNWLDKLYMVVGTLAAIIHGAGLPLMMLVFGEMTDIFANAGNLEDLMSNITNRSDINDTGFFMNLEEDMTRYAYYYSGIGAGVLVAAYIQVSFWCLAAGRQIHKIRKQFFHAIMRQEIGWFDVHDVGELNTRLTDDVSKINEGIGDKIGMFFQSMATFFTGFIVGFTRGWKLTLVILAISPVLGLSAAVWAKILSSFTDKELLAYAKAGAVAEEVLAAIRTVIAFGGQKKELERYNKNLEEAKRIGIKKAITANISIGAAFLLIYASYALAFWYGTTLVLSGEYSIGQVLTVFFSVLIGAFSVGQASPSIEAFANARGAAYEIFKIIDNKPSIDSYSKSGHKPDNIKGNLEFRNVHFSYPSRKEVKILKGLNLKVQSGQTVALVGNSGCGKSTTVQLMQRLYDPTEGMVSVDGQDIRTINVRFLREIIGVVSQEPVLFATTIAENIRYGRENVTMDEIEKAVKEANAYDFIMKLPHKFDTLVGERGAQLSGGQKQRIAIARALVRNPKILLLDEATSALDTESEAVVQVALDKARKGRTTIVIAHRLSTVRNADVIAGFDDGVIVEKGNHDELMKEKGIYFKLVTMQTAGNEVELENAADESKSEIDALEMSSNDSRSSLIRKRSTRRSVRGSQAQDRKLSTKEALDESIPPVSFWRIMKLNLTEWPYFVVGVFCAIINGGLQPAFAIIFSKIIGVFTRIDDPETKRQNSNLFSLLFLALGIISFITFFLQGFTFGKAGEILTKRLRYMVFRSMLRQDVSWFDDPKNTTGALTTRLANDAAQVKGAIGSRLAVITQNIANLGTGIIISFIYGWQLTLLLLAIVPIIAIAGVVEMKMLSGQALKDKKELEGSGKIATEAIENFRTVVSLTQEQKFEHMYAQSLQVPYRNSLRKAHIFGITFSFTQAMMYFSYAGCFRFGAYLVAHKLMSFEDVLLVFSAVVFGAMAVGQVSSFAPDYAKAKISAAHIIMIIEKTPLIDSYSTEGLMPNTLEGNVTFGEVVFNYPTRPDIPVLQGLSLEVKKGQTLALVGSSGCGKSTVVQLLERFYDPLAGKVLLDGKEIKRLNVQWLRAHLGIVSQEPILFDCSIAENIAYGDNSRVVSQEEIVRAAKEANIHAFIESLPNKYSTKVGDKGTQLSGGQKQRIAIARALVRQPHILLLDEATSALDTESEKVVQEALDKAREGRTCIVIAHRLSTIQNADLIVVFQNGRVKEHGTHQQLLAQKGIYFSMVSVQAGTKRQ

Compound: N.N.[Cl][Pt][Cl] [Cisplatin, cisplatin, reference compound]
- IC50 (MCF-7 cells; read-out: drug sensitivity (IC50), MCF-7, Table 4, mean ± SEM for 3 experiments): 11.5 ± 4.1 µM
- Resistance (MCF-7/VP relative to MCF-7) (MCF-7/VP cells): 0.6
- IC50 (MCF-7/VP cells; read-out: drug sensitivity (IC50), MCF-7/VP, Table 4, MRP1 overexpressing, mean ± SEM for 3 experiments): 7 ± 2.9 µM
- Resistance (NCI/ADR relative to MCF-7) (NCI/ADR cells): 1.1
- IC50 (NCI/ADR cells; read-out: drug sensitivity (IC50), NCI/ADR, Table 4, P-glycoprotein overexpressing, mean ± SEM for 3 experiments): 12.2 ± 4.2 µM
- effect of P-glycoprotein / MRP1 overexpression on cell sensitivity (in words) [1]: insensitive to transporter expression

Compound: COc1cc2c(c(OC)c1OC)-c1ccc(OC)c(=O)cc1[C@@H](NC(C)=O)CC2 [Colchicine, colchicine]
- increase of the percentage of cells in the G2/M phases ([2]; HL-60): approximately 2 fold
- cell cycle distribution, G2/M ([2]; percentage of HL-60 cells): 11.9 ± 0.3
- cell cycle distribution, G9/G1 ([2]; percentage of HL-60 cells): 84.1 ± 0.7
- cell cycle distribution, S ([2]; percentage of HL-60 cells): 4.0 ± 1.4

Compound: COc1ccc(CCc2cn(Cc3ccccc3)c3nc(N)nc(C)c23)cc1 [Compound 2]
- change of cytotoxic potency by substitution (in words) ([3]; T24, relative to unsubstituted Compound 5): decreased the cytotoxic potency
- IC50 ([3]; mean ± SEM for 3 experiments): 31.7 ± 1.7 µM
- effect on P-glycoprotein-mediated resistance (in words) (P-glycoprotein): dose-dependent sensitization
- IC50 (MCF-7 cells; read-out: Cytotoxicity IC50, MCF-7, mean ± SEM for 3 experiments): 13 ± 3.5 µM
- IC50 (MCF-7/VP cells; read-out: Cytotoxicity IC50, MCF-7/VP, mean ± SEM for 3 experiments): 22.7 ± 3.7 µM
- IC50 (NCI/ADR cells; read-out: Cytotoxicity IC50, NCI/ADR, mean ± SEM for 3 experiments): 21.7 ± 4.4 µM

Compound: CC[C@]1(O)C[C@H]2CN(CCc3c([nH]c4ccccc34)[C@@](C(=O)OC)(c3cc4c(cc3OC)N(C=O)[C@H]3[C@@](O)(C(=O)OC)[C@H](OC(C)=O)[C@]5(CC)C=CCN6CC[C@]43[C@@H]65)C2)C1 [Vincristine, vincristine, reference compound]
- IC50 (MCF-7 cells; Homo sapiens, MCF7, read-out: drug sensitivity (IC50), MCF-7): 0.0006 ± 0.0001 µM
- IC50 (MCF-7/VP cells; Homo sapiens, MCF7-VP, read-out: drug sensitivity (IC50), MCF-7/VP): 0.0093 ± 0.0014 µM
- Resistance (MCF-7/VP relative to MCF-7) (MCF-7/VP cells): 15.5
- IC50 (NCI/ADR cells; Homo sapiens, NCI/ADR-RES, read-out: drug sensitivity (IC50), NCI/ADR): 0.1 µM
- Resistance (NCI/ADR relative to MCF-7) (NCI/ADR cells): 167
- effect of P-glycoprotein / MRP1 overexpression on cell sensitivity (in words) [1]: overexpression of MRP1 also confers substantial resistance
